Results taken from ChEMBL document CHEMBL1201862, “PubChem BioAssay data set” (2004).
Activity calls are given as the source filed them.

Assays:
[1] = molecular target: T1, Estrogen receptor beta (Homo sapiens, UniProt Q92731);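 further: recombinant ER-beta bound to coactivator SRC1 peptide in presence of estradiol agonist; inhibitors block coactivator peptide binding and lower the FRET signal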
[2] = tested on: BJ; assay: cytotoxicity toward BJ-TERT fibroblasts, dose response, cell-based, RAS-independent, luminescence (AID 1933); type: functional; settings: Homo sapiens
[3] = tested on: BJ; assay: cells; type: functional, cell-based; settings: Homo sapiens
[4] = tested on: BJ; assay: cytotoxicity toward BJ-TERT-LT-ST fibroblasts, dose response, cell-based, RAS-independent, luminescence (AID 1935); type: functional; settings: Homo sapiens;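 further: BJ fibroblasts immortalized with TERT plus LT and ST oncogenes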
[5] = cytotoxicity toward DRD oncogenic fibroblasts, dose response, cell-based, non-viral oncogenic, luminescence (AID 1934); type: functional; settings: Homo sapiens
[6] = molecular target: T2, Oxysterols receptor LXR-beta (Homo sapiens, UniProt P55055); type: functional, cell-based
T2 sequence (P55055 whole entry): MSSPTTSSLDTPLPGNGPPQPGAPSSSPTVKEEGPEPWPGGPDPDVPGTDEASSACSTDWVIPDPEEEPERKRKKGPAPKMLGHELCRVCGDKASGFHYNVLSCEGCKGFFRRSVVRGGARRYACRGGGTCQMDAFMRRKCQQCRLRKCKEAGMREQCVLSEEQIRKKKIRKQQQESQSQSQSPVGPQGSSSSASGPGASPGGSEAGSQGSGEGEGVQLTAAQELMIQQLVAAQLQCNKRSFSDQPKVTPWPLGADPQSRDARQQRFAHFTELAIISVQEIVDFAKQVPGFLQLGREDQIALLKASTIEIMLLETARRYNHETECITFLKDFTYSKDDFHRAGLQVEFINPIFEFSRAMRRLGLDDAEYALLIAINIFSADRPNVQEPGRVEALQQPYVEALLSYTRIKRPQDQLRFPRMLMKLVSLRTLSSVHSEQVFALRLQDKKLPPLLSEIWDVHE

[7] = molecular target: T3, Mannose-6-phosphate isomerase (Homo sapiens, UniProt P34949); assay: human PMI inhibitors, high substrate, primary screen, biochemical, fluorescence intensity, high mannose 6-phosphate (AID 1220)
T3 sequence (P34949 whole entry): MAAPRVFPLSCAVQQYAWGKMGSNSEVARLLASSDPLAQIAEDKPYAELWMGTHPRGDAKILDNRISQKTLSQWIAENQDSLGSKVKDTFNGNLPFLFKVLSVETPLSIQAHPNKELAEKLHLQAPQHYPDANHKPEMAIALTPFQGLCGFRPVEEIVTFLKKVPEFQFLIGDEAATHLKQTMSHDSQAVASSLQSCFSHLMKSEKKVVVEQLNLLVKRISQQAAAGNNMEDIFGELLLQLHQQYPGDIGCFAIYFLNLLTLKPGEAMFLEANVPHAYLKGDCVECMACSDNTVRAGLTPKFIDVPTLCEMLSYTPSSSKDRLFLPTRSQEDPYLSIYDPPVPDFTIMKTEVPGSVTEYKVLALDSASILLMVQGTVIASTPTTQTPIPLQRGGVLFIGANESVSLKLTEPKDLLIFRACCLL

[8] = tested on: H9c2; assay: cells; type: functional, cell-based; settings: Rattus norvegicus, H9c2, Myocardium;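 further: confirmatory concentration-response retest of ultra-high-throughput screening hits for modulation of myocardial damage; cell death induced by hydrogen peroxide oxidative stress; compound pretreatment for 60 min then peroxide exposure for 2 h; potency is for protecting the cells against peroxide damage rather than for killing them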
[9] = molecular target: T4, Rac GTPase-activating protein 1 (Homo sapiens, UniProt Q9H0H5); assay: MgcRacGAP GTPase-activating activity inhibitors, confirmation, biochemical, ADP Hunter fluorescence, primary and confirmatory (AID 624330); type: functional
T4 sequence (Q9H0H5 whole entry): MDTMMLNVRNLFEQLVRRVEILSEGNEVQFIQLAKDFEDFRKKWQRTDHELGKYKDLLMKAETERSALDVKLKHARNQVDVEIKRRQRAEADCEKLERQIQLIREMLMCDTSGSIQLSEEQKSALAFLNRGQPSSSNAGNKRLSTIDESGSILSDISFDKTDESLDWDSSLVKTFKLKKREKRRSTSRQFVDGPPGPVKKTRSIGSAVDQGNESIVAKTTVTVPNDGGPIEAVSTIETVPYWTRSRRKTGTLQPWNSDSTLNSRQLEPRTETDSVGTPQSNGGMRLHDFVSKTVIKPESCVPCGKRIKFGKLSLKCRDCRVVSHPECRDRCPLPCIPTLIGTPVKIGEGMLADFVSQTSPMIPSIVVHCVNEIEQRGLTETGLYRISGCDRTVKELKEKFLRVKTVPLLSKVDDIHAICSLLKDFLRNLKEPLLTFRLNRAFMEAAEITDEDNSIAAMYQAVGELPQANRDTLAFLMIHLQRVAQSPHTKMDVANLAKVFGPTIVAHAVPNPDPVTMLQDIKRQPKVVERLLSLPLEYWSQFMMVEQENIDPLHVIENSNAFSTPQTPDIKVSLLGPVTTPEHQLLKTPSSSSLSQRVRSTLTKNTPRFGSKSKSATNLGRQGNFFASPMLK

[10] = A375 melanoma cell viability loss, dose response, counter-screen for MITF inhibitor project, CellTiter-Glo luminescence, dry powder, set 4 (AID 624364); type: functional, cell-based; settings: A-375;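 further: A375 melanoma cells are MITF independent so this is a counter screen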
[11] = A375 melanoma cell cytotoxicity, dose response, counter-screen for MITF inhibitor project, CellTiter-Glo luminescence, dry powder, set 2 (AID 624489); type: functional, cell-based; settings: A-375;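 further: actives are compounds lowering A375 viability meaning general cytotoxicity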
[12] = molecular target: Large T antigen (Simian virus 40, UniProt P03070); type: functional, Betapolyomavirus macacae;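 further: Confirmatory-stage PubChem screen for compounds that inhibit SV40 T antigen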
Chain of Large T antigen (P03070 whole entry): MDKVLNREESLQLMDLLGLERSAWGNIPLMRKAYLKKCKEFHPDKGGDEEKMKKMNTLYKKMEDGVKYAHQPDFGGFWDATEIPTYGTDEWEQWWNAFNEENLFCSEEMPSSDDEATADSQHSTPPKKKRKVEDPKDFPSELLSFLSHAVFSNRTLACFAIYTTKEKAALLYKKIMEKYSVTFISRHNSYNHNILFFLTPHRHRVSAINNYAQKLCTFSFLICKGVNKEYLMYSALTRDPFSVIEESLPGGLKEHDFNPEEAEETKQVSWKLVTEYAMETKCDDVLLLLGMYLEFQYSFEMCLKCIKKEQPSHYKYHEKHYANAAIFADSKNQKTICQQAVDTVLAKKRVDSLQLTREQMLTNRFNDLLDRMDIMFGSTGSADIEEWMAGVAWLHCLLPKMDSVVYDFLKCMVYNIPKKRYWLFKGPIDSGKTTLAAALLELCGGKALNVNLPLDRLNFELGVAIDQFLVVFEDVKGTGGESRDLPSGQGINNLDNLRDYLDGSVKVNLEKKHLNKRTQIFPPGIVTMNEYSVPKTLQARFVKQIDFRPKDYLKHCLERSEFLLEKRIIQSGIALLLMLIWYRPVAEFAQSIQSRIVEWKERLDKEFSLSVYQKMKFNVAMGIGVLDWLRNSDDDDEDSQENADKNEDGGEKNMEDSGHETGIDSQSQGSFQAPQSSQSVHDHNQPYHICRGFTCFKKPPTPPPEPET

[13] = molecular target: T2, Oxysterols receptor LXR-beta; type: functional, cell-based; remark: listed apart in the source
[14] = cells
[15] = NIH-3T3 fibroblast cytotoxicity, dose response, cytotoxicity control, cell-based, fluorescence, Alamar Blue, secondary assay (AID 2327); type: functional;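 further: NIH-3T3 mouse fibroblasts cultured with fluconazole at 8 µg/mL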
[16] = C. albicans growth with fluconazole, confirmation, fluorescence, retest (AID 2467); type: functional, cell-based
[17] = cells; remark: listed apart in the source
[18] = molecular target: T5, Carboxy-terminal domain RNA polymerase II polypeptide A small phosphatase 1 (Homo sapiens, UniProt Q9GZU7); assay: inhibitors of CTDSP1, concentration-response testing, biochemical assay, absorbance-based, actives from ultra-high-throughput screening (AID 540297); type: functional
T5 sequence (Q9GZU7 whole entry): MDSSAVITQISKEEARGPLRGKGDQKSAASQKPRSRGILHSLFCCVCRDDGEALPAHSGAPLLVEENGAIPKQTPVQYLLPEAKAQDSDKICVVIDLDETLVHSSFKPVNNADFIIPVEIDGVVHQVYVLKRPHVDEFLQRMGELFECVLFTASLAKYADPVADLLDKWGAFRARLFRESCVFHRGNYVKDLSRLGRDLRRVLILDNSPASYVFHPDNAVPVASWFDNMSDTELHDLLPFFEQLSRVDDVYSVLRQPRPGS

[19] = Luminescence-based cell-based high throughput dose response assay to identify activators of the DAF-12 from the parasite S. stercoralis (ssDAF-12).; type: functional
[20] = molecular target: T2, Oxysterols receptor LXR-beta; assay: LXR agonists, Gal4 luciferase reporter, dose response, counter-screen for ssDAF-12 agonist project, cell-based, luminescence, HEK293, S. stercoralis campaign (AID 720737); type: functional; settings: read-out: IC50 (the source's name)
[21] = molecular target: T6, Estrogen receptor (Homo sapiens, UniProt P03372);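 further: potency for inhibiting coactivator peptide recruitment to the receptor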
T6 sequence (P03372 whole entry): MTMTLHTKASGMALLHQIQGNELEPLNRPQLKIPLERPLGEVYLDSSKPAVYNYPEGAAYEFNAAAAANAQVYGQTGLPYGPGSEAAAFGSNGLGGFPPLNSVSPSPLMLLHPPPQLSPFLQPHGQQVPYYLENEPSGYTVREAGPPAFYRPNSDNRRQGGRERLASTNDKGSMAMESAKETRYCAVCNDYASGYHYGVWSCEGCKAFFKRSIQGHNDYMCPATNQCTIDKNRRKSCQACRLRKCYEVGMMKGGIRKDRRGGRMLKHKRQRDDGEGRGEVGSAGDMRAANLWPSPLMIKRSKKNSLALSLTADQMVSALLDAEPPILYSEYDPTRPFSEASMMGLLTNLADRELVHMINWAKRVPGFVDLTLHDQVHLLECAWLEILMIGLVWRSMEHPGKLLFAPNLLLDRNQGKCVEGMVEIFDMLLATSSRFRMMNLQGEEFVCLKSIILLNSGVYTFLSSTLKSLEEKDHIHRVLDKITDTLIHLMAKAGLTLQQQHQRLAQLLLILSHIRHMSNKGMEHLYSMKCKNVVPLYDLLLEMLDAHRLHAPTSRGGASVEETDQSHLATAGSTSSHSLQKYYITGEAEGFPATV

[22] = molecular target: T1, Estrogen receptor beta; assay: ERβ–SRC-3 coactivator interaction inhibitors, confirmation, orthogonal assay, biochemical, ELISA, streptavidin-HRP readout (AID 1060)
[23] = Concentration-dependent survival of SW480 colon cancer line, luminescence detection with CellTiter-Glo, half-maximal inhibitory concentration (AID 1117338); type: functional
[24] = cytotoxicity toward HCT116 cells – cell-based, CellTiter-Glo luminescence, IC50, dose response (AID 1117332); type: functional; settings: HCT-116
[25] = cytotoxicity toward Colo320 cells – cell-based, CellTiter-Glo luminescence, IC50, dose response (AID 1117334); type: functional; settings: COLO 320
[26] = CellTiter-Glo luminescent dose response of DLD-1 viability loss (AID 1117352); type: functional

T1 sequence (Q92731 whole entry): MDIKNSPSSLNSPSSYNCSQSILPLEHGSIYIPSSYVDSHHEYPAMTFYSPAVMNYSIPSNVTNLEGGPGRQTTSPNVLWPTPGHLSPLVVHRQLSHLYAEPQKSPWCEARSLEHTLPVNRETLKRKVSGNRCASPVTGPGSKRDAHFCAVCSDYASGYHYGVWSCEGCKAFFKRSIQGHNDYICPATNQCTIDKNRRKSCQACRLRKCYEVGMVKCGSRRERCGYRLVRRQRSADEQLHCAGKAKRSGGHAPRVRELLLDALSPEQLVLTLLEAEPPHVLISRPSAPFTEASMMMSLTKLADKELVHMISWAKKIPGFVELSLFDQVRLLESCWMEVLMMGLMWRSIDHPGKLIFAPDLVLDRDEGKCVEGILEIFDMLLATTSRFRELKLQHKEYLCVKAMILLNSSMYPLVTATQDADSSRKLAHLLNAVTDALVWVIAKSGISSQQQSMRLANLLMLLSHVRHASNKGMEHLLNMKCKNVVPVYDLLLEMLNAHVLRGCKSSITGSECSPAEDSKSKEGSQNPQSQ

O=C(CCc1ccccc1)Nc1nnc(-c2cccs2)o1
IC50 [1]: > 50 µM (not active)

Cc1ccc(C(=O)c2ccc(N3CCN(C)CC3)c([N+](=O)[O-])c2)cc1
EC50 [2]: > 150 µM (not active)
EC50 [3]: > 150 µM (not active)
EC50 [4]: > 150 µM (not active)
EC50 [5]: > 150 µM (not active)

Clc1ccc(CSc2nc3cc[nH]cc-3n2)cc1
EC50 [6]: > 67.5 µM (inactive)

Oc1ccc(Cl)cc1/C=N/c1ccc2c3c(cccc13)CC2
IC50 [7]: > 50 µM (not active)
IC50 [8]: 9.38 µM (active)
IC50 [9]: 12.9 µM (active)

O=C(NC1=C(N2CCOCC2)C(=O)c2ccccc2C1=O)c1ccc(Br)cc1
AC50 [10]: > 70 µM (inactive)
AC50 [11]: 28.9 µM (active)

COc1ccc(C(=O)c2cc([N+](=O)[O-])ccc2N2CCN(C)CC2)cc1
EC50 [2]: 9.22 µM (inconclusive)
EC50 [3]: 32.9 µM (active)
EC50 [4]: 4.39 µM (active)
EC50 [5]: 5.04 µM (active)

CN(C)c1ccc(Nc2nc(-c3cccnc3)cs2)cc1
IC50 [12]: 8.54 µM (active)
EC50 [6]: > 67.5 µM (inactive)

Fc1cccc(Cl)c1/C=N/Nc1ccccn1
EC50 [13]: > 67.6 µM (inactive)
EC50 [14]: > 67.6 µM (inactive)

O=C1CN2C(=Nc3ccc(Cl)cc3C2c2ccccc2)CN1 (stereo not given)
EC50 [15]: > 160 µM (inactive)
EC50 [16]: 3.04 µM (active)
IC50 [17]: 24.2 µM (active)

CC(C)CCOc1ccc(C(=O)C[N+]2(C)CCOCC2)cc1
IC50 [7]: > 50 µM (not active)
IC50 [18]: 9.75 µM (active)

O=C(Nc1ccccc1)C(=O)c1c[nH]c2ccccc12
IC50 [19]: > 67.5 µM (inactive)
EC50 [20]: > 67.5 µM (inactive)

O=S(=O)(Nc1nccs1)c1cc(Cl)ccc1Cl
IC50 [21]: > 50 µM (not active)
IC50 [1]: > 50 µM (not active)
IC50 [22]: 78.6 µM (not active)

c1cnc2cc3c(cc2n1)[C@@H]1CNC[C@H]3C1 [VARENICLINE]
IC50 [23]: > 6.67 µM (inactive)
IC50 [24]: > 20 µM (inactive)
IC50 [25]: > 20 µM (inactive)
IC50 [26]: > 6.67 µM (inactive)

Cc1ccccc1N=Nc1c(O)[nH]c2ccccc12
EC50 [13]: > 67.5 µM (inactive)
EC50 [14]: > 67.5 µM (inactive)
